Results: PMC5006061 (Biochimie, 2016)

Tests used:
GLUT1 [1] = biological target: T1, GLUT1 (Homo sapiens, UniProt P11166); experiment: Reduction of specific 3H-cytochalasin B binding in HCLE cells; assay type: cell-based
T1 sequence (P11166 1-492): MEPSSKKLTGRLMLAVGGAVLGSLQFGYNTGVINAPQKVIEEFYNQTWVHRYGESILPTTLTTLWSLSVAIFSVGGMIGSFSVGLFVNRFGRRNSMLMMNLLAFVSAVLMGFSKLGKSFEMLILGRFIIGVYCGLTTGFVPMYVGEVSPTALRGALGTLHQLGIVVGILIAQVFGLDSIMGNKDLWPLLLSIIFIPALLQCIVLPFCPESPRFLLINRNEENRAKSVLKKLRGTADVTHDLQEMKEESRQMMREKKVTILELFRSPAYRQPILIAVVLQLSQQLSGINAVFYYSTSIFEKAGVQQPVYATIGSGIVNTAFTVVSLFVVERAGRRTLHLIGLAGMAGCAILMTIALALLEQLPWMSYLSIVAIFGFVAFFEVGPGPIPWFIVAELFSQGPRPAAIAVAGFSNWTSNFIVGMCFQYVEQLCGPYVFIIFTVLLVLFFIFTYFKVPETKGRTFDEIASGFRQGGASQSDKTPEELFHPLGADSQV

GLUT1 [2] = biological target: T2, GLUT1 (Mus musculus, UniProt P17809); experiment: Inhibition of 3H-2-deoxyglucose uptake in L929 cells; assay type: cell-based
T2 sequence (P17809 1-492): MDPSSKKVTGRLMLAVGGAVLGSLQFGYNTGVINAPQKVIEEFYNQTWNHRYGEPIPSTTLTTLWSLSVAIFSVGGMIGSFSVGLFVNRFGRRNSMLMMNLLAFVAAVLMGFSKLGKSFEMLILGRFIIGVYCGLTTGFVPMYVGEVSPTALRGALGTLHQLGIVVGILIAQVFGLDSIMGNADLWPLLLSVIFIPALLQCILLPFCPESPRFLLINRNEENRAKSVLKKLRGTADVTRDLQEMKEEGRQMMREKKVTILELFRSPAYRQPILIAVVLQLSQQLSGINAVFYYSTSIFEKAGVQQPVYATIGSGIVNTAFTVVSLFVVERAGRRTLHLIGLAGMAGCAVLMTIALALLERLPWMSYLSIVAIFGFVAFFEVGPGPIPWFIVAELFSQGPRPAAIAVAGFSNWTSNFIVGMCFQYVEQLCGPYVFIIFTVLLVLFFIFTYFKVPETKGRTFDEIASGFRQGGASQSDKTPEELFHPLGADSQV

COc1cc(/C=C/C(=O)CC(=O)/C=C/c2ccc(O)c(OC)c2)ccc1O [Cur, Curcumin]
Reduction of specific 3H-cytochalasin B binding in HCLE cells; 2DG uptake inhibi (GLUT1 [1]): 80% reduction at 75 | IC50 (GLUT1 [2]): 19 µM
